Test results published in patent publication US9828375B2, “4-position substituted pyrazolopyrimidine derivative, and use thereof in drug preparation” (Guangxi Wuzhou Pharmaceuticals (Group) Co., Ltd., priority 2012, dated 2017).

Legend:
[1] = biological target: c-RAF (Homo sapiens, UniProt P04049); test: Kinase inhibition activity test, isotope labeling: c-RAF; assay type: biochemical; settings: ATP 45 μM; read-out: c-RAF IC50 value (inhibitory activity value)
Method: (§1) The purpose of this experiment was to test the inhibitory activity of the compound of the invention for in vitro kinase with the isotope labeling method (the γ phosphate group on ATP was labeled). In this experiment, the in vitro activity inhibition of such kinases as FLT3, VEGFR2, FLT1, FLT4, RET, c-RAF, B-RAF, c-KIT, PDGFα, PDGFβ, FGFR2, FGFR1, EphA2, EphB2, SRC, ABL, ALK and Met was tested respectively. Staurosporine was reference molecule (or referred to as positive control). The kinase inhibition activity of the test compound was expressed by half-inhibitory concentration (IC50) or the kinase activity inhibition rate of the test compound at a concentration of 10 μM. The IC50 value could be obtained by calculating the kinase activity inhibition rate of the test compound at different concentrations.
(§2) 20 mM 3-(N-morpholinyl)propanesulfonic acid (MOPS); 1 mM ethylenediaminetetraacetic acid (EDTA), 0.01% Brij 35 (Brij-35), 5% glycerol, 0.1% mercaptoethanol, 1 mg/mL bovine serum albumin (BSA), 10 mM manganous dichloride solution (MnCl2), 0.1 mg/mL glutamic acid/tyrosine (4:1) polypeptide (poly(Glu, Tyr)4:1), 50 μM EAIYAAPFAKKK (substrate of FLT3), 0.33 mg/mL myelin basic protein (substrate of VEGFR2), 250 μM KKKSPGEYVNIEFG (substrate of FLT1(h)), 500 μM GGEEEEYFELVKKKK (substrate of FLT4(h)), 250 μM KKKSPGEYVNIEFG (substrate of RET), 0.66 mg/mL myelin basic protein (substrate of C-RAF), 250 μM GGMEDIYFEFMGGKKK (substrate of c-Kit), 250 μM GGMEDIYFEFMGGKKK (substrate of PDGFα), 250 μM KKKSPGEYVNIEFG (substrate of FGFR1), […] GGEEEEYFELVKKKK (substrate of SRC), 50 μM EAIYAAPFAKKK (substrate of ABL), 250 μM KKKSPGEYVNIEFG (substrate of ALK), 250 μM KKKSPGEYVNIEFG (substrate of Met(h)), 10 mM magnesium acetate and γ-^33 P-ATP solution, stop buffer (3% phosphate buffer), washing buffer (75 mM phosphate solution), methanol, Filtermat A membrane, FLT3, VEGFR2, FLT3, VEGFR2, FLT1, FLT4, RET, c-RAF, B-RAF, c-KIT, PDGFRα, PDGFRβ, FGFR2, FGFR1, EphA2, EphB2, SRC, ABL, ALK, Met and other kinases, and the test compounds.
(§3) Buffers (8 mM MOPS with pH value of 7.0, 0.2 mM EDTA and 10 mM MnCl2), (5-10 mU) kinases to be tested (FLT3, VEGFR2, FLT1, FLT4, RET, c-RAF, B-RAF, c-KIT, PDGFRα, PDGFRβ, FGFR2, FGFR1, EphA2, EphB2, SRC, ABL, ALK and Met), substrates of kinases to be tested (refer to experimental materials), 10 mM magnesium acetate and γ-^33 P-ATP solution, and test compounds at different concentrations were added to a reaction tube orderly. […] Reaction was terminated with 5 μL 3% phosphate buffer finally, and 10 μL reaction solution was titrated to the Filtermat A membrane; solution was washed for 3 times with 75 mM phosphate solution with each time lasting 5 minutes, and then washed once with methanol. […]

[2] = biological target: EphA2 (Homo sapiens, UniProt P29317); test: Kinase inhibition activity test, isotope labeling: EphA2; assay type: biochemical; settings: ATP 155 μM; read-out: EphA2 IC50 value (inhibitory activity value)
Method: as §1, §2, §3

[3] = tested on: Abl/Abl (T315I)(h); test: Kinase inhibition activity test, isotope labeling: Abl; assay type: biochemical, human; settings: test compound at a concentration of 10 μM
Method: as §1, §2
Buffers (8 mM MOPS with pH value of 7.0, 0.2 mM EDTA and 10 mM MnCl2), (5-10 mU) kinases to be tested (FLT3, VEGFR2, FLT1, FLT4, RET, c-RAF, B-RAF, c-KIT, PDGFRα, PDGFRβ, FGFR2, FGFR1, EphA2, EphB2, SRC, ABL, ALK and Met), substrates of kinases to be tested (refer to experimental materials), 10 mM magnesium acetate and γ-^33 P-ATP solution, and test compounds at different concentrations were added to a reaction tube orderly. […] Reaction was terminated with 5 μL 3% phosphate buffer finally, and 10 μL reaction solution was titrated to the Filtermat A membrane; solution was washed for 3 times with 75 mM phosphate solution with each time lasting 5 minutes, and then washed once with methanol. Finally, the Filtermat A membrane was dried, and scintillation counting was performed on the membrane, with scintillation count reflecting the phosphorylation degree of the substrates, so that the activity inhibition of kinase could be characterized.

[4] = tested on: human thyrophyma cell line TT; test: In vitro tumor cell proliferation inhibition (MTT): TT; assay type: cell-based
Description: (§4) The purpose of the experiment was to test the inhibition activity of the compounds of the invention for in vitro human tumor cell proliferation by the methyl thiazolyl tetrazolium (MTT) colorimetry.
(§5) Main reagents: RPMI-1640, fetal bovine serum, pancreatin, etc. were purchased from Gibco BRL Company (Invitrogen Corporation, USA) and IMDM medium that was purchased from American Type Culture Collection (ATCC). Methyl thiazolyl tetrazolium (MTT) and dimethyl sulfoxide (DMSO) were products from Sigma Company (USA). Pyrazolopyrimidine derivatives were composed by the inventor. During in vitro experiment, 100% DMSO was prepared into 10 mM storage solution, the solution was stored in a refrigerator at −20° C. for future use, and was diluted to the required concentration with complete culture solution before use.
(§6) Cell line and culture: Human leukemia cell line MV4-11, Jurkat, K562, human thyrophyma cell line TT, human gastric carcinoma cell line MKN-45, human malignant melanoma cell lines A375 and A875, human pancreatic carcinoma cell line panc-1, human cervical carcinoma cell line HELA, human colorectal carcinoma cell line HCT116, etc. were purchased from American type culture collection and were preserved by this laboratory. All leukemia cell lines (except MV4-11), gastric carcinoma cell lines and thyrophyma cell lines were cultured in RPMI-1640 complete medium containing 10% fetal bovine serum, 100 U/mL penicillin and 100 μg/mL streptomycin at 37° C. in 5% CO2. The remaining cell lines were cultured in DMEM complete medium containing 10% fetal bovine serum (containing 20% MV4-11 cell), 100 U/mL penicillin and 100 µg/mL streptomycin at 37° C. in 5% CO2.
(§7) Cell suspension with cell concentration of 1-2×10^4/mL was adjusted with the complete cell medium and inoculated in a 96-well plate, with each well filled with 200 μl cell suspension that was cultured overnight. On the next day, supernatant was sucked and abandoned (supernatant was sucked upon centrifugation of suspension cells), and then cells were processed with test compounds at gradient concentrations respectively. Meanwhile, a negative control group free from drug and a solvent control group with equal volume were set, and the DMSO concentration was 0.1%. Each dose group was provided with three wells and cultured at 37° C. in 5% CO2. After 72 hours, 20 μl 5 mg/mL MTT reagent was added to each well, and cultured for another 2 to 4 hours, the supernatant was abandoned; 150 μL DMSO was added to each well again, vibrated and mixed evenly for 15 minutes; the absorbance (A) values (proportional to living cell amount) were determined with a microplate reader (λ=570 nm) and averaged. […] Experiment was repeated for 3 times at least. Experimental data were expressed with means, data statistics were tested by t, and P<0.05 means that difference has a statistical significance. The cell proliferation inhibition effects of all compounds as follows are expressed by IC50 or inhibition rate.

[5] = tested on: human cervical carcinoma cell line HELA; test: In vitro tumor cell proliferation inhibition (MTT): HELA; assay type: cell-based; settings: 72 hours
Description: as §4, §5, §6, §7

EphA2, sequence (P29317 24-976): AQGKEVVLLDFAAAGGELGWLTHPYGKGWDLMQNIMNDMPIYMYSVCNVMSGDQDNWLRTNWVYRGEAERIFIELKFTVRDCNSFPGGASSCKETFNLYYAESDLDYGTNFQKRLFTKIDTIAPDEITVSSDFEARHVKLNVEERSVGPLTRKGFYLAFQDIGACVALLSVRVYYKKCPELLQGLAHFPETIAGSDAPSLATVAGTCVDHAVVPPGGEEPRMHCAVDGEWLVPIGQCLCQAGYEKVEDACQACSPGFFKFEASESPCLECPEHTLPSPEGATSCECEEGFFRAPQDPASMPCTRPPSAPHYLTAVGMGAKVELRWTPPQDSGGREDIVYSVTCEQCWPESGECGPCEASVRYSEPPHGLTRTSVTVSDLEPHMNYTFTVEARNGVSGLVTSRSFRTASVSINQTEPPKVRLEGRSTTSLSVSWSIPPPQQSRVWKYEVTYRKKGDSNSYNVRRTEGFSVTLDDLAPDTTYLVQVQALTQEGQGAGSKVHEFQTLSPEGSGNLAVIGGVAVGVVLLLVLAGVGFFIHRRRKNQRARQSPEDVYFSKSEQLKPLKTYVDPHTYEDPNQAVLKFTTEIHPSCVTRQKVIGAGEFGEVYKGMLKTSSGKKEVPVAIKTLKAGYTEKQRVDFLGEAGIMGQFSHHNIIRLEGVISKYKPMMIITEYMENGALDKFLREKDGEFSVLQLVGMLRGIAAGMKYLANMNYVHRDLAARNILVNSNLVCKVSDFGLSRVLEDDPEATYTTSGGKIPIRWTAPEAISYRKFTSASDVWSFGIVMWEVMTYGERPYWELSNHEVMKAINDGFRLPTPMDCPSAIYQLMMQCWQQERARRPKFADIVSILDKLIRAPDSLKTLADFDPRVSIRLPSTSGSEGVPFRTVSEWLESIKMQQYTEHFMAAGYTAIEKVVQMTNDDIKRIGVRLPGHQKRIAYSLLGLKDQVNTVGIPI
c-RAF, sequence (P04049 whole entry): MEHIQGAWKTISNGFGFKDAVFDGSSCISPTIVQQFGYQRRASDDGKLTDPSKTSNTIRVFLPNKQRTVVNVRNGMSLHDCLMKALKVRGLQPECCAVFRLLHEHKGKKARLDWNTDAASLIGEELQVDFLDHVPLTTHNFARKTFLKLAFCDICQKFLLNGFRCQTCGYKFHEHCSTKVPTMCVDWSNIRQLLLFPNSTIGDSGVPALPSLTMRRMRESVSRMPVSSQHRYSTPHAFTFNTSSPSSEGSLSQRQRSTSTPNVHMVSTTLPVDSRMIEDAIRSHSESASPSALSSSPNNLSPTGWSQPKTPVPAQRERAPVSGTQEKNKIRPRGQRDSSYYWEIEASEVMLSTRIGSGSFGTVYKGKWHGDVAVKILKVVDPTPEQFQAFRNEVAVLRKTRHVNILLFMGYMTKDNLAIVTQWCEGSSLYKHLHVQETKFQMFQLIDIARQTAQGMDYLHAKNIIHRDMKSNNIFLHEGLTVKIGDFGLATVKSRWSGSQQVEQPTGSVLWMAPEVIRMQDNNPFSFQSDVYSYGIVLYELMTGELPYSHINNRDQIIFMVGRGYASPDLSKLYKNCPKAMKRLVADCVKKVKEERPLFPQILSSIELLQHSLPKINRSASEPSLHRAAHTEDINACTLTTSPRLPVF

Row | Activity inhibition rate Abl/Abl (T315I)(h) [3] | IC50 [5] | Compound | further results
1 | >50% | 3 to 10 µM | CC(C)(C)c1cc(NC(=O)Nc2ccc(Oc3ncnc4[nH]ncc34)c(F)c2)no1 [4a-31] | IC50 [1]: 0.046 µM; IC50 [2]: < 10 µM; IC50 ([4]; 72 hours): 0.943 µM
2 |  |  | O=C(Nc1cccc(Nc2ncnc3[nH]ncc23)c1)Nc1ccc(F)c(Cl)c1 [4b-1] | IC50 ([5]; Homo sapiens, HeLa): < 50 µM
3 | 99% | < 50 µM | O=C(Nc1ccccc1)Nc1ccc(Oc2ncnc3[nH]ncc23)cc1 [4a-15, 1-(4-((1H-pyrazolopyrimidine-4-yl)oxy)phenyl)-3-phenylurea] | 
4 | >50% | 5.51 µM | CC(C)(C)c1cc(NC(=O)Nc2ccc(Oc3ncnc4[nH]ncc34)cc2)n(-c2ccccc2)n1 [4a-24] | IC50 ([4]; 72 hours): 1.55 µM
5 | >50% |  | CC(C)(C)c1cc(NC(=O)Nc2ccc(Oc3ncnc4[nH]ncc34)cc2)no1 [4a-26] | IC50 ([4]; Homo sapiens, 72 h): 2.12 µM; IC50 ([5]; Homo sapiens, HeLa): 3 to 10 µM
6 | 60% | < 50 µM | CC(C)c1cccc(NC(=O)Nc2ccc(Oc3ncnc4[nH]ncc34)c(F)c2)c1 [4a-7, 1-(4-((1H-pyrazolopyrimidine-4-yl)oxy)-3-fluorophenyl)-3-(3-isopropylphenyl)urea] | 
7 | 67% | < 50 µM | O=C(Nc1ccc(Oc2ncnc3[nH]ncc23)c(F)c1)Nc1ccc(Cl)c(C(F)(F)F)c1 [4a-10, 1-(4-((1H-pyrazolopyrimidine-4-yl)oxy)-3-fluorophenyl)-3-(4-chloro-3-(trifluoromethyl)phenyl)urea] | 
8 | >30% |  | O=C(Nc1ccc(Sc2ncnc3[nH]ncc23)cc1)Nc1ccc(C(F)(F)F)cc1 [4c-1] | 
9 | 27% | < 50 µM | O=C(Nc1ccc(Oc2ncnc3[nH]ncc23)cc1)Nc1ccc(C(F)(F)F)cc1Cl [4a-13] | IC50 ([4]; 72 hours): 3 to 10 µM
10 |  |  | CC(C)n1ncc2c(Oc3ccc(NC(=O)Nc4cc(C(C)(C)C)on4)cc3)ncnc21 [5a-4, 1-(5-tert-butylisoxazol-3-yl)-3-(4-(1-isopropyl-(1H-pyrazolopyrimidine-4-yl)oxy)phenyl)urea] | IC50 ([4]; Homo sapiens, 72 h): 9.89 µM
11 | >30% | < 50 µM | CC(C)(C)c1cc(NC(=O)Nc2ccc(Sc3ncnc4[nH]ncc34)cc2)no1 [4c-3, 1-(4-(1H-pyrazolopyrimidine-4-sulfydryl)phenyl)-3-(5-tert-butylisoxazol-3-yl)urea] | IC50 ([4]; 72 hours): 3 to 10 µM
12 |  |  | C[C@@H](NC(=O)Nc1ccc(Nc2ncnc3[nH]ncc23)cc1)c1ccccc1 [4b-2, (R)-1-(4-(1H-pyrazolopyrimidine-4-amido)phenyl)-3-(1-phenethyl)urea] | IC50 ([5]; Homo sapiens, HeLa): < 50 µM
13 |  |  | O=C(Nc1ccc(Oc2ncnc3[nH]ncc23)cc1)Nc1ccc(N2CCOCC2)cc1 [4a-16, 1-(4-((1H-pyrazolopyrimidine-4-yl)oxy)phenyl)-3-(4-morpholinylphenyl)urea] | IC50 ([5]; Homo sapiens, HeLa): < 50 µM
14 | 15% | 4.98 µM | O=C(Nc1ccc(C(F)(F)F)cc1)Nc1ccc(Oc2ncnc3[nH]ncc23)c(F)c1 [4a-9, 1-(4-((1H-pyrazolopyrimidine-4-yl)oxy)-3-fluorophenyl)-3-(4-(trifluoromethyl)phenyl)urea] | IC50 ([4]; 72 hours): 1.63 µM
15 |  | < 50 µM | C[C@H](NC(=O)Nc1ccc(Nc2ncnc3[nH]ncc23)cc1)c1ccccc1 [4b-4] | 
16 | 45% | < 50 µM | C[C@H](NC(=O)Nc1ccc(Oc2ncnc3[nH]ncc23)cc1)c1ccccc1 [4a-18, (S)-1-(4-((1H-pyrazolopyrimidine-4-yl)oxy)phenyl)-3-(1-phenethyl)urea] | 
17 |  |  | O=C(Nc1ccc(NC(=O)N2C=NC=C3NNC=C32)cc1)Nc1ccc(Cl)c(C(F)(F)F)c1 [4b-5, 1-(4-(1H-pyrazolopyrimidine-4-amido)phenyl)-3-(4-chloro-3-(trifluoromethyl)phenyl)urea] | IC50 ([4]; Homo sapiens, 72 h): 9.48 µM
18 | >50% |  | O=C(Nc1ccc(Oc2ncnc3[nH]ncc23)cc1)Nc1cc(C(F)(F)F)on1 [4a-28] | IC50 ([4]; Homo sapiens, 72 h): 3 to 10 µM; IC50 ([5]; Homo sapiens, HeLa): < 50 µM
19 | 17% |  | O=C(Nc1ccc(Oc2ncnc3[nH]ncc23)cc1)Nc1ccc(C(F)(F)F)cc1 [4a-1] | IC50 ([4]; Homo sapiens, 72 h): < 50 µM; IC50 ([5]; Homo sapiens, HeLa): < 50 µM
20 | 78% | < 50 µM | O=C(Nc1ccc(Oc2ncnc3[nH]ncc23)cc1)Nc1cc(C(F)(F)F)cc(C(F)(F)F)c1 [4a-12, 1-(4-((1H-pyrazolopyrimidine-4-yl)oxy)phenyl)-3-(3,5-bis(trifluoromethyl)phenyl)urea] | 
21 | >30% |  | O=C(Nc1ccc(Sc2ncnc3[nH]ncc23)cc1)Nc1cccc(C(F)(F)F)c1 [4c-2] | IC50 ([4]; 72 hours): 7.89 µM
22 | 21% | < 50 µM | C[C@@H](NC(=O)Nc1ccc(Oc2ncnc3[nH]ncc23)cc1)c1ccccc1 [4a-19, (R)-1-(4-((1H-pyrazolopyrimidine-4-yl)oxy)phenyl)-3-(1-phenethyl)urea] | 
23 |  |  | COc1cccc(NC(=O)Nc2ccc(Nc3ncnc4[nH]ncc34)cc2)c1 [4b-3] | IC50 ([5]; Homo sapiens, HeLa): < 50 µM
24 | 19% | < 50 µM | 1-(4-((1H-pyrazolopyrimidine-4-yl)oxy)phenyl)-3-(methylcyclohexyl)urea [4a-20] | 
25 | 34% | 8.49 µM | 1-(4-((1H-pyrazolopyrimidine-4-yl)oxy)-3-fluorophenyl)-3-(3-trifluoromethoxy)phenyl)urea [4a-8] | 
